This assay deals with T1, GPR103 L193^ECL2A (Homo sapiens, UniProt Q96P65, L193A).
T1 construct: we used human full-length QRFPR-encoding plasmids; expressed in transfected cells; host or cells: HEK293 cells, pCAGGS vector
T1 sequence (Q96P65 1-431 L193A): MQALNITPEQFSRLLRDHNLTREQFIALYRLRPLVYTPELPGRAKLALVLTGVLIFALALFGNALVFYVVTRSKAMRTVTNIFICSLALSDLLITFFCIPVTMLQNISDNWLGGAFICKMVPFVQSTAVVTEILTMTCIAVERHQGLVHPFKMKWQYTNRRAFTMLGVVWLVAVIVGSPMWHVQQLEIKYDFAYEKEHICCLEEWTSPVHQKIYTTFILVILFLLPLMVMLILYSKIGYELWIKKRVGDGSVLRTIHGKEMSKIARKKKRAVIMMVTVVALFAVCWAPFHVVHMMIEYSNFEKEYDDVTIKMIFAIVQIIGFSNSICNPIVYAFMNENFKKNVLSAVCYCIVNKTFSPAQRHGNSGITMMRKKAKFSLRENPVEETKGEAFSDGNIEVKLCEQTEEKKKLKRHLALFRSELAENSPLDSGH
The assay is described as follows: TGFα shedding assay; Exp. level WT (1:50). It is filed as cell-based.

The values that follow come from publication PMC11187126, “Structure and dynamics of the pyroglutamylated RF-amide peptide QRFP receptor GPR103” (Nature Communications, 2024).

Usually EC50 stands for the concentration giving half of the maximal effect. Read a low EC50 as higher potency in that assay.

Read-outs that look alike come from different tables or passages of the source. No end group written: not given here.

In the case of TSGPLGNLAEELNGYSRKKGGFSFRF-NH2 [QRFP26], the Emax stood at 89.95 % WT (Exp. #1); 86.94 % WT (Exp. #2); 94.38 % WT (Exp. #3); 90.4% (mean, read-out: Emax); 93.8 ± 1.8% (n = 3, read-out: Emax). The substance further gave an EC50 (n = 3) of 182 nM.
